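Assay format: 96-well plates, 48-hour exposure. Here, GI50 denotes the concentration required for 50% inhibition of growth.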 Active and inactive are the calls of the source. No stated cut-off is given here; in the data, active = GI50 up to about 1.1 µM and inactive = higher.
Key:
Experiment in all cases: growth of human tumour cells (NCI), 48 h
[1] = system: UACC-62
[2] = system: TK-10
[3] = system: SNB-19
[4] = system: UO-31
[5] = system: MDA-N
[6] = system: CAKI-1
[7] = system: Malme-3M
[8] = system: SW-620
[9] = system: HCT-116
[10] = system: KM12
[11] = system: IGROV-1
[12] = system: MDA-MB-435
[13] = system: Hs-578T
[14] = system: ACHN
[15] = system: NCI-H226
[16] = system: M14
[17] = system: SK-OV-3
[18] = system: A549
[19] = system: COLO 205
[20] = system: PC-3

SMILES | GI50 [1] | GI50 [2] | GI50 [3] | GI50 [4] | GI50 [5] | GI50 [6] | GI50 [7] | GI50 [8] | GI50 [9] | GI50 [10] | GI50 [11] | GI50 [12] | GI50 [13] | GI50 [14] | GI50 [15] | GI50 [16] | GI50 [17] | GI50 [18] | GI50 [19] | GI50 [20]
Cc1ccc(/C(C#N)=C/c2cccc([N+](=O)[O-])c2)cc1 | 71.1 µM (inactive) | 92.5 µM (inactive) | 43.8 µM (inactive) | 45.3 µM (inactive) | > 100 µM (inactive) | > 100 µM (inactive) | > 100 µM (inactive) | > 100 µM (inactive) | 76.2 µM (inactive) | > 100 µM (inactive) | 80.5 µM (inactive) | > 100 µM (inactive) | 27.4 µM (inactive) | > 100 µM (inactive) | > 100 µM (inactive) | > 100 µM (inactive) | 61.9 µM (inactive) | > 100 µM (inactive) | > 100 µM (inactive) | > 100 µM (inactive)
COC(=O)c1ccc(CCc2cc(O)ccc2O)cc1 | 14.8 µM (inactive) | 22.4 µM (inactive) | 12 µM (inactive) | 2.02 µM (inactive) | 5.94 µM (inactive) | 4.06 µM (inactive) | 8.75 µM (inactive) | 6.27 µM (inactive) | 10.4 µM (inactive) | 5.52 µM (inactive) | 6.49 µM (inactive) | 6.08 µM (inactive) | 16.1 µM (inactive) | 13.3 µM (inactive) | 9.29 µM (inactive) | 10.6 µM (inactive) | 38 µM (inactive) | 26.8 µM (inactive) | 23.9 µM (inactive) | 4.3 µM (inactive)
c1ccc([P+](CC[P+](c2ccccc2)(c2ccccc2)c2ccccc2)(c2ccccc2)c2ccccc2)cc1 | 25.6 µM (inactive) | 12.3 µM (inactive) | 47.4 µM (inactive) | > 46.1 µM (inactive) | 14.4 µM (inactive) | 61.8 µM (inactive) | 14.1 µM (inactive) | 3.62 µM (inactive) | 16.5 µM (inactive) | 15.2 µM (inactive) | 38 µM (inactive) | 9.64 µM (inactive) | 7.98 µM (inactive) | 19.2 µM (inactive) | > 56.8 µM (inactive) | 22.3 µM (inactive) | > 84.9 µM (inactive) | 2.49 µM (inactive) | 8.81 µM (inactive) | 6.27 µM (inactive)
CCOC(=O)CCc1ccc(NC(=O)/C=C/c2ccc([N+](=O)[O-])o2)cc1 | 2.12 µM (inactive) | 1.48 µM (inactive) | 9.82 µM (inactive) | 1.61 µM (inactive) | 0.807 µM (active) | 2.47 µM (inactive) | 1.49 µM (inactive) | 0.547 µM (active) | 0.685 µM (active) | 1.56 µM (inactive) | 3.5 µM (inactive) | 0.316 µM (active) | 3.16 µM (inactive) | 1.34 µM (inactive) | 4.34 µM (inactive) | 0.92 µM (active) | 9.12 µM (inactive) | 3.72 µM (inactive) | 1.52 µM (inactive) | 3.03 µM (inactive)
CCCCCCOP(=O)(OCCCCCC)OC(C(=O)OC)C(F)(F)F (stereo not given) | > 100 µM (inactive) | > 100 µM (inactive) | > 100 µM (inactive) | > 100 µM (inactive) | > 100 µM (inactive) | > 100 µM (inactive) | > 100 µM (inactive) | > 100 µM (inactive) | > 100 µM (inactive) | > 100 µM (inactive) | > 100 µM (inactive) | > 100 µM (inactive) | > 100 µM (inactive) | > 100 µM (inactive) | > 100 µM (inactive) | > 100 µM (inactive) | > 100 µM (inactive) | > 100 µM (inactive) | > 100 µM (inactive) | > 100 µM (inactive)
COc1ccccc1C(=O)NCC1CCCN2CCCCC12 (stereo not given) | > 100 µM (inactive) | > 100 µM (inactive) | > 100 µM (inactive) | > 100 µM (inactive) | > 100 µM (inactive) | > 100 µM (inactive) | > 100 µM (inactive) | > 100 µM (inactive) | > 100 µM (inactive) | > 100 µM (inactive) | > 100 µM (inactive) | > 100 µM (inactive) | > 100 µM (inactive) | > 100 µM (inactive) | > 100 µM (inactive) | > 100 µM (inactive) | > 100 µM (inactive) | 93.3 µM (inactive) | > 100 µM (inactive) | > 100 µM (inactive)
Cc1nc(N/N=C/c2ccccc2Cl)[nH]c(=O)c1CCO | 34.4 µM (inactive) | 76 µM (inactive) | 51.6 µM (inactive) | > 100 µM (inactive) | > 100 µM (inactive) | > 10 µM (inactive) | 22 µM (inactive) | > 100 µM (inactive) | 38.8 µM (inactive) | 59.7 µM (inactive) | 34 µM (inactive) | > 100 µM (inactive) | 29.4 µM (inactive) | > 100 µM (inactive) | > 100 µM (inactive) | 87.7 µM (inactive) | 23.1 µM (inactive) | > 100 µM (inactive) | > 100 µM (inactive) | > 100 µM (inactive)
Cc1ccc(S(=O)(=O)n2ccc(-c3ccc4ccn(S(=O)(=O)c5ccc(C)cc5)c4c3)c2)cc1 | > 100 µM (inactive) | > 100 µM (inactive) | 41 µM (inactive) | > 100 µM (inactive) | > 100 µM (inactive) | > 100 µM (inactive) | > 100 µM (inactive) | > 100 µM (inactive) | > 100 µM (inactive) | > 100 µM (inactive) | > 100 µM (inactive) | > 100 µM (inactive) | 27.9 µM (inactive) | > 100 µM (inactive) | > 100 µM (inactive) | > 100 µM (inactive) | > 100 µM (inactive) | > 100 µM (inactive) | > 100 µM (inactive) | > 100 µM (inactive)
Nc1cc2c(nc3c4ccccc4c(N)cc3[n+]2-c2cccc3ccccc23)c2ccccc12.Nc1cc2c(nc3c4ccccc4ccc3[n+]2-c2cccc3ccccc23)c2ccccc12 | 7.89 µM (inactive) | 0.893 µM (active) | 4.56 µM (inactive) | 2.59 µM (inactive) | 1.87 µM (inactive) | 3.66 µM (inactive) | 1.6 µM (inactive) | 1.55 µM (inactive) | 1.67 µM (inactive) | 1.31 µM (inactive) | 1.71 µM (inactive) | 1.45 µM (inactive) | 1.17 µM (inactive) | 2.18 µM (inactive) | 12.2 µM (inactive) | 2 µM (inactive) | 4.32 µM (inactive) | 1.39 µM (inactive) | 1.93 µM (inactive) | 0.465 µM (active)
NC(=O)Cc1nc2c(O)ncnc2n1C1OC(CO)C(O)C1O (stereo not given) | > 100 µM (inactive) | > 100 µM (inactive) | > 100 µM (inactive) | > 100 µM (inactive) | > 100 µM (inactive) | > 100 µM (inactive) | > 100 µM (inactive) | > 100 µM (inactive) | > 100 µM (inactive) | > 100 µM (inactive) | > 100 µM (inactive) | > 100 µM (inactive) | > 100 µM (inactive) | > 100 µM (inactive) | > 100 µM (inactive) | > 100 µM (inactive) | > 100 µM (inactive) | > 100 µM (inactive) | > 100 µM (inactive) | > 100 µM (inactive)
Nc1n[nH]c(N)n1 [GUANAZOLE] | 2620 µM (inactive) | > 10000 µM (inactive) | 9980 µM (inactive) | 7030 µM (inactive) | 8570 µM (inactive) | 3550 µM (inactive) | 9100 µM (inactive) | > 9380 µM (inactive) | 5980 µM (inactive) | 8890 µM (inactive) | 7000 µM (inactive) | > 9750 µM (inactive) | > 10000 µM (inactive) | 1890 µM (inactive) | 5860 µM (inactive) | 3310 µM (inactive) | 3210 µM (inactive) | 4420 µM (inactive) | > 8990 µM (inactive) | 8510 µM (inactive)

Reference: ChEMBL document CHEMBL1201862, “PubChem BioAssay data set” (2004)
